Earlier results on one molecule are cited in patent US11559519B2, “Tizanidine therapy system” (MEDRx Co., Ltd., priority 2018, dated 2023).

For this data set the following is noted: multiple dose, placebo-controlled clinical studies.

For the molecule `Clc1ccc2nsnc2c1NC1=NCCN1` [tizanidine], the “sedation rated as severe” value is given as 10%. Further, the “patients who reported sedation as an adverse event” value (patients receiving any dose) is reported as 48%.
